Laboratory results taken from US6348435B1, “Substituted 2,4-diamino-1,3,5-triazine and their use as herbicides” (Bayer Aktiengesellschaft, priority 1997, dated 2002).

What was measured:
weeds [1] = experiment: Post-emergence test, summary on weeds; assay type: in vivo; details: result in words
Method: (§1) Solvent: 5 parts by weight of acetone
(§2) Emulsifier: 1 part by weight of alkylaryl polyglycol ether
(§3) To produce a suitable preparation of active compound, 1 part by weight of active compound is mixed with the stated amount of solvent, the stated amount of emulsifier is added and the concentrate is diluted with water to the desired concentration.
(§4) Test plants having a height of 5-15 cm are sprayed with the preparation of active compound such that the particular amounts of active compound desired are applied per unit area. The concentration of the spray liquor is chosen so that the particular amounts of active compound desired are applied in 1000 l of water/ha.
(§5) After three weeks, the degree of damage to the plants is rated in % damage in comparison with the development of the untreated control.
(§6) 0%=no effect (like untreated control)

weeds [2] = experiment: Pre-emergence test, summary on weeds; assay type: in vivo; details: result in words
Method: (§7) Pre-emergence Test Solvent: 5 parts by weight of acetone Emulsifier: 1 part by weight of alkylaryl polyglycol ether To produce a suitable preparation of active compound, 1 part by weight of active compound is mixed with the stated amount of solvent, the stated amount of emulsifier is added and the concentrate is diluted with water to the desired concentration. Seeds of the test plants are sown in normal soil. After about 24 hours, the soil is sprayed with the preparation of active compound such that the particular amounts of active compound desired are applied per unit area. The concentration of the spray liquor is chosen so that the particular amounts of active compound desired are applied in 1000 l of water/ha. After three weeks, the degree of damage to the plants is rated in % damage in comparison with the development of the untreated control. The figures denote: 0%=no effect (like untreated control) 100%=total destruction

Maize [3] = experiment: Pre-emergence test/greenhouse; assay type: in vivo; details: for tolerance by crop plants, such as, for example, maize: pre-emergence test, result in words; for degree of damage to the plants, Maize: pre-emergence, 1000 g of ai./ha, rated after three weeks vs untreated control, 0%=no effect, 100%=total destruction
Method: as §7

Galium = experiment: Pre-emergence test/greenhouse; assay type: in vivo; details: 1000 g of ai./ha, rated after three weeks vs untreated control, 0%=no effect, 100%=total destruction
Method: as §7

Setaria [4] = experiment: Pre-emergence test/greenhouse; assay type: in vivo; details: 1000 g of ai./ha, rated after three weeks vs untreated control, 0%=no effect, 100%=total destruction
Method: as §7

Amaranthus [5] = experiment: Pre-emergence test/greenhouse; assay type: in vivo; details: 1000 g of ai./ha, rated after three weeks vs untreated control, 0%=no effect, 100%=total destruction
Method: as §7

Sinapis [6] = experiment: Pre-emergence test/greenhouse; assay type: in vivo; details: 1000 g of ai./ha, rated after three weeks vs untreated control, 0%=no effect, 100%=total destruction
Method: as §7

Sinapis [7] = experiment: Post-emergence test/greenhouse; assay type: in vivo; details: 504 h, 1000 g of ai./ha, plants 5-15 cm sprayed, rated after three weeks vs untreated control, 0%=no effect, 100%=total destruction, read-out: degree of damage to the plants, Sinapis
Method: as §1, §2, §3, §4, §5, §6

Abutilon = experiment: Post-emergence test/greenhouse; assay type: in vivo; details: 504 h, 1000 g of ai./ha, plants 5-15 cm sprayed, rated after three weeks vs untreated control, 0%=no effect, 100%=total destruction, read-out: degree of damage to the plants, Abutilon
Method: as §1, §2, §3, §4, §5, §6

Amaranthus [8] = experiment: Post-emergence test/greenhouse; assay type: in vivo; details: 504 h, 1000 g of ai./ha, plants 5-15 cm sprayed, rated after three weeks vs untreated control, 0%=no effect, 100%=total destruction, read-out: degree of damage to the plants, Amaranthus
Method: as §1, §2, §3, §4, §5, §6

Maize [9] = experiment: Post-emergence test/greenhouse; assay type: in vivo; details: Zea mays, 504 h, 1000 g of ai./ha, plants 5-15 cm sprayed, rated after three weeks vs untreated control, 0%=no effect, 100%=total destruction, read-out: degree of damage to the plants, Maize
Method: as §1, §2, §3, §4, §5, §6

Setaria [10] = experiment: Post-emergence test/greenhouse; assay type: in vivo; details: 504 h, 1000 g of ai./ha, plants 5-15 cm sprayed, rated after three weeks vs untreated control, 0%=no effect, 100%=total destruction, read-out: degree of damage to the plants, Setaria
Method: as §1, §2, §3, §4, §5, §6

Xanthium = experiment: Post-emergence test/greenhouse; assay type: in vivo; details: 1000 g of ai./ha, plants 5-15 cm sprayed, rated after three weeks vs untreated control, 0%=no effect, 100%=total destruction
Method: as §1, §2, §3, §4, §5, §6

Compound | action against weeds (weeds [1]) | pest or weed control at 1000 g/ha (Sinapis [7]) [%] | pest or weed control at 1000 g/ha (Abutilon) [%] | pest or weed control at 1000 g/ha (Amaranthus [8]) [%] | plant injury at 1000 g/ha (Maize [9]) [%] | pest or weed control at 1000 g/ha (Setaria [10]) [%] | other results
CCc1nc(N)nc(NC(C)c2cccs2)n1 (stereo not shown) [Example 1, 2-amino-4-ethyl-6-(1-thien-2-yl-ethylamino)-1,3,5-triazine] | strong action |  |  |  |  |  | 
CCc1nc(NC(C)=O)nc(NC(C)c2cccs2)n1 (stereo not shown) [Example 2, 2-acetylamino-4-ethyl-6-(1-thien-2-yl-ethyl-amino)-1,3,5-triazine] | strong action |  |  |  |  |  | melting point: 153 °C
CC(Nc1nc(N)nc(C(Cl)Cl)n1)c1cccs1 (stereo not shown) [Example 5] | strong action |  |  |  |  |  | melting point: 135 °C
CC(Cl)c1nc(N)nc(NC(C)c2cccs2)n1 (stereo not shown) [Example 6] | strong action |  |  |  |  |  | melting point: 125 °C
CCc1nc(N)nc(NC(CC)c2cccs2)n1 (stereo not shown) [Example 11] | strong action |  |  |  |  |  | 
CCC(Nc1nc(N)nc(C(Cl)Cl)n1)c1cccs1 (stereo not shown) [Example 13] | strong action |  |  |  |  |  | 
CCC(Nc1nc(N)nc(C(C)Cl)n1)c1cccs1 (stereo not shown) [Example 14] | strong action |  |  |  |  |  | 
CCC(Nc1nc(N)nc(C(C)F)n1)c1cccs1 (stereo not shown) [Example 15] | strong action |  |  |  |  |  | action against weeds (weeds [2]): strong action; tolerance by crop plants, such as, for example, maize (Maize [3]): tolerated very well
CCC(Nc1nc(N)nc(C(F)C(F)(F)F)n1)c1cccs1 (stereo not shown) [Example 16] | strong action |  |  |  |  |  | 
CCc1nc(NC(C)=O)nc(NC(CC)c2cccs2)n1 (stereo not shown) [Example 18] | strong action |  |  |  |  |  | 
CCC(Nc1nc(NC(C)=O)nc(C(Cl)Cl)n1)c1cccs1 (stereo not shown) [Example 20] | strong action |  |  |  |  |  | melting point: 131 °C
CCC(Nc1nc(NC(C)=O)nc(C(C)Cl)n1)c1cccs1 (stereo not shown) [Example 21] | strong action |  |  |  |  |  | 
CCC(Nc1nc(NC(C)=O)nc(C(C)F)n1)c1cccs1 (stereo not shown) [Example 22] | strong action |  |  |  |  |  | action against weeds (weeds [2]): strong action; tolerance by crop plants, such as, for example, maize (Maize [3]): tolerated very well
CCC(Nc1nc(NC(C)=O)nc(C(C)(Cl)Cl)n1)c1cccs1 (stereo not shown) [Example 24] | strong action |  |  |  |  |  | melting point: 113 °C
CCC(Nc1nc(N)nc(C(C)F)n1)c1cccs1 (stereo not shown) [drawing 223] |  |  |  |  |  |  | degree of damage to the plants, Galium (Galium): 100%; degree of damage to the plants, Setaria (Setaria [4]): 90%; degree of damage to the plants, Amaranthus (Amaranthus [5]): 100%; degree of damage to the plants, Maize (Maize [3]): 0%
CCC(Nc1nc(NC(C)=O)nc(C(C)F)n1)c1cccs1 (stereo not shown) [drawing 224] |  |  |  |  |  |  | degree of damage to the plants, Sinapis (Sinapis [6]): 100%; degree of damage to the plants, Galium (Galium): 100%; degree of damage to the plants, Setaria (Setaria [4]): 100%; degree of damage to the plants, Amaranthus (Amaranthus [5]): 95%; degree of damage to the plants, Maize (Maize [3]): 0%
CCc1nc(N)nc(NC(C)c2cccs2)n1 (stereo not shown) [drawing 225] |  | 100 | 100 | 100 | 30 |  | 
CCc1nc(NC(C)=O)nc(NC(C)c2cccs2)n1 (stereo not shown) [drawing 226] |  | 100 | 100 | 100 | 0 | 90 | 
CCc1nc(N)nc(NC(CC)c2cccs2)n1 (stereo not shown) [drawing 227] |  | 100 | 100 | 100 | 30 | 100 | 
CCC(Nc1nc(N)nc(C(C)Cl)n1)c1cccs1 (stereo not shown) [drawing 228] |  | 100 | 100 | 100 | 30 | 100 | 
CCC(Nc1nc(N)nc(C(C)F)n1)c1cccs1 (stereo not shown) [drawing 229] |  | 100 | 100 | 100 | 0 | 100 | 
CCC(Nc1nc(N)nc(C(F)C(F)(F)F)n1)c1cccs1 (stereo not shown) [drawing 230] |  | 100 | 100 | 100 | 10 | 100 | 
CCc1nc(NC(C)=O)nc(NC(CC)c2cccs2)n1 (stereo not shown) [drawing 231] |  | 100 | 100 | 100 | 20 | 100 | 
CCC(Nc1nc(NC(C)=O)nc(C(Cl)Cl)n1)c1cccs1 (stereo not shown) [drawing 232] |  | 100 | 100 | 100 | 0 | 100 | 
CCC(Nc1nc(NC(C)=O)nc(C(C)Cl)n1)c1cccs1 (stereo not shown) [drawing 233] |  | 100 | 100 | 100 | 0 | 100 | 
CC(Nc1nc(N)nc(C(Cl)Cl)n1)c1cccs1 (stereo not shown) [drawing 234] |  | 100 | 100 | 100 |  | 90 | 
CCC(Nc1nc(NC(C)=O)nc(C(C)F)n1)c1cccs1 (stereo not shown) [drawing 235] |  | 100 | 100 | 100 |  | 100 | 
CC(Cl)c1nc(N)nc(NC(C)c2cccs2)n1 (stereo not shown) [drawing 236] |  |  | 100 | 100 | 0 |  | degree of damage to the plants, Xanthium (Xanthium): 100%
CCC(Nc1nc(N)nc(C(Cl)Cl)n1)c1cccs1 (stereo not shown) [drawing 237] |  | 100 |  | 100 | 10 | 100 | degree of damage to the plants, Xanthium (Xanthium): 80%
CCC(Nc1nc(NC(C)=O)nc(C(C)(Cl)Cl)n1)c1cccs1 (stereo not shown) [drawing 238] |  | 100 |  | 100 |  | 100 | degree of damage to the plants, Xanthium (Xanthium): 100%
